# Legend:
# Crabgrass [1] = assay: Test B pre-emergence on Fallsington silt loam; format: in vivo, Digitaria sanguinalis; design: scale not given here; settings: 28 days
# From the text: (§1) Two plastic bulb pans were filled with fertilized and limed Fallsington silt loam soil. One pan was planted with corn, sorghum, Kentucky bluegrass and several grassy weeds. The other pan was planted with cotton, soybeans, purple nutsedge (Cyperus rotundus), and several broadleaf weeds. The following grassy and broadleaf weeds were planted: crabgrass (Digitaria sanguinalis), barnyardgrass (Echinochloa crusgalli), wild oats (Avena fatua), johnsongrass (Sorghum halepense), dallisgrass (Paspalum dilatatum), giant foxtail (Setaria faberii), cheatgrass (Bromus secalinus), mustard (Brassica arvensis), cocklebur (Xanthium pensylvanicum), pigweed (Amaranthus retroflexus), morningglory (Ipomoea hederacea), cassia (Cassia tora), teaweed (Sida spinosa), velvetleaf (Abutilon theophrasti), and jimsonweed (Datura stramonium). A 12.5 cm diameter plastic pot was also filed with prepared soil and planted with rice and wheat. Another 12.5 cm pot was planted with sugarbeets. The above four containers were treated pre- emergence with several test compounds within the scope of the invention.
# (§2) Twenty-eight days after treatment, the plants were evaluated and visually rated for response to the chemical treatments utilizing the rating system described previously for Test A. The data are summarized in Table B.
# Barnyardgrass [2] = assay: Test B pre-emergence on Fallsington silt loam; format: in vivo, Echinochloa crusgalli; settings: 28 days
# From the text: as §1, §2
# Wild Oats [3] = assay: Test B pre-emergence on Fallsington silt loam; format: in vivo, Avena fatua; design: scale not given here; settings: 28 days
# From the text: as §1, §2
# Johnsongrass = assay: Test B pre-emergence on Fallsington silt loam; format: in vivo, Sorghum halepense; design: scale not given here; settings: 28 days
# From the text: as §1, §2
# Dallisgrass = assay: Test B pre-emergence on Fallsington silt loam; format: in vivo, Paspalum dilatatum; design: scale not given here; settings: 28 days
# From the text: as §1, §2
# Giant Foxtail = assay: Test B pre-emergence on Fallsington silt loam; format: in vivo, Setaria faberii; settings: 28 days
# From the text: as §1, §2
# Cheatgrass = assay: Test B pre-emergence on Fallsington silt loam; format: in vivo, Bromus secalinus; settings: 0.007 kg/ha, 28 days
# From the text: as §1, §2
# Corn [4] = assay: Test B pre-emergence on Fallsington silt loam; format: in vivo; design: scale not given here; settings: 28 days
# From the text: as §1, §2
# Sugarbeets [5] = assay: Test B pre-emergence on Fallsington silt loam; format: in vivo; design: scale not given here; settings: 28 days
# From the text: as §1, §2
# Cocklebur = assay: Test B pre-emergence on Fallsington silt loam; format: in vivo, Xanthium pensylvanicum; settings: 28 days
# From the text: as §1, §2
# Pigweed = assay: Test B pre-emergence on Fallsington silt loam; format: in vivo, Amaranthus retroflexus; settings: 28 days
# From the text: as §1, §2
# Nutsedge = assay: Test B pre-emergence on Fallsington silt loam; format: in vivo, Cyperus rotundus; settings: 28 days
# From the text: as §1, §2
# Cotton = assay: Test B pre-emergence on Fallsington silt loam; format: in vivo; settings: 28 days
# From the text: as §1, §2
# Rice = assay: Test B pre-emergence on Fallsington silt loam; format: in vivo; settings: 0.007 kg/ha, 28 days
# From the text: as §1, §2
# Sorghum [6] = assay: Test B pre-emergence on Fallsington silt loam; format: in vivo; settings: 28 days
# From the text: as §1, §2
# Morningglory = assay: Test B pre-emergence on Fallsington silt loam; format: in vivo, Ipomoea hederacea; settings: 28 days
# From the text: as §1, §2
# Cassia = assay: Test B pre-emergence on Fallsington silt loam; format: in vivo, Cassia tora; settings: 28 days
# From the text: as §1, §2
# Soybean = assay: Test B pre-emergence on Fallsington silt loam; format: in vivo, soybeans; settings: 28 days
# From the text: as §1, §2
# Corn [7] = assay: Test F over-the-top soil/foliage treatment; format: in vivo; settings: soil/foliage spray, ~14 days
# Protocol: (§3) The test chemicals, dissolved in a non-phytotoxic solvent, were applied in an overall spray to the foliage and surrounding […] of selected plant species. […] Approximately fourteen days after treatment, all species were visually compared to untreated controls and rated for response to treatment.
# (§4) All plant species were seeded in Woodstown sandy loam soil and grown in a greenhouse. The following species were grown in soil contained in plastic pots (25 cm diameter by 13 cm deep): soybeans, cotton, alfalfa, corn, rice, wheet, sorghum, velvetleaf (Abutilon theophrasti), sesbania (Sesbania exaltata), Cassia (Cassia tora), morningglory (Ipomoea hederacea), jimsonweed (Datura stramonium), cocklebur (Xanthium pensylvanicum), crabgrass (Digitaria spp.), nutsedge (Cyperus rotundus), barnyardgrass (Echinochloa crusgalli), giant foxtail (Setaria faberii) and wild oats (Avena fatua). The following species were grown in soil in a paper cup (12 cm diameter by 13 cm deep): sunflower, sugarbeets, and mustard. All plants were sprayed approximately 14 days after planting.
# Mustard = assay: Test F over-the-top soil/foliage treatment; format: in vivo; settings: soil/foliage spray; 0.007 kg/ha; ~14 days
# Protocol: as §3, §4
# Sugarbeets [8] = assay: Test F over-the-top soil/foliage treatment; format: in vivo; settings: soil/foliage spray; 0.007 kg/ha; ~14 days
# Protocol: as §3, §4
# Sunflower = assay: Test F over-the-top soil/foliage treatment; format: in vivo; settings: soil/foliage spray; 0.007 kg/ha; ~14 days
# Protocol: as §3, §4
# Sesbania = assay: Test F over-the-top soil/foliage treatment; format: in vivo, Sesbania exaltata; design: scale not given here; settings: soil/foliage spray, ~14 days
# Protocol: as §3, §4
# Alfalfa = assay: Test F over-the-top soil/foliage treatment; format: in vivo; design: scale not given here; settings: soil/foliage spray, ~14 days
# Protocol: as §3, §4
# Sorghum [9] = assay: Test F over-the-top soil/foliage treatment; format: in vivo; design: scale not given here; settings: soil/foliage spray, ~14 days
# Protocol: as §3, §4
# Jimsonweed = assay: Test F over-the-top soil/foliage treatment; format: in vivo, Datura stramonium; settings: soil/foliage spray; 0.003 kg/ha; ~14 days
# Protocol: as §3, §4
# Crabgrass [10] = assay: Test F over-the-top soil/foliage treatment; format: in vivo, Digitaria spp.; design: scale not given here; settings: soil/foliage spray, ~14 days
# Protocol: as §3, §4
# Barnyardgrass [11] = assay: Test F over-the-top soil/foliage treatment; format: in vivo, Echinochloa crusgalli; design: scale not given here; settings: soil/foliage spray, ~14 days
# Protocol: as §3, §4
# Wheat = assay: Test F over-the-top soil/foliage treatment; format: in vivo, wheet; design: scale not given here; settings: soil/foliage spray, ~14 days
# Protocol: as §3, §4
# Wild Oats [12] = assay: Test F over-the-top soil/foliage treatment; format: in vivo, Avena fatua; design: scale not given here; settings: soil/foliage spray, ~14 days
# Protocol: as §3, §4
smiles,measurement,setting,value
"Cc1cc(C)nc(NC(=O)NS(=O)(=O)c2ccccc2OS(C)(=O)=O)n1 [Compound 3, N-[(4,6-dimethylpyrimidin-2-yl)aminocarbonyl]-2-hydroxybenzenesulfonamide, methanesulfonate]",Crabgrass response rating,Crabgrass [1]; 0.007 kg/ha,0
same,Crabgrass response rating,Crabgrass [1]; 0.015 kg/ha,0
same,Crabgrass response rating,Crabgrass [1]; 0.03 kg/ha,5G
same,Crabgrass response rating,Crabgrass [1]; 0.12 kg/ha,6G
same,Barnyardgrass response rating,Barnyardgrass [2]; 0.007 kg/ha,2G
same,Barnyardgrass response rating,Barnyardgrass [2]; 0.015 kg/ha,2G
same,Wild Oats response rating,Wild Oats [3]; 0.007 kg/ha,0
same,Wild Oats response rating,Wild Oats [3]; 0.015 kg/ha,0
same,Wild Oats response rating,Wild Oats [3]; 0.03 kg/ha,10C
same,Wild Oats response rating,Wild Oats [3]; 0.12 kg/ha,10C
same,Johnsongrass response rating,Johnsongrass; 0.007 kg/ha,0
same,Johnsongrass response rating,Johnsongrass; 0.015 kg/ha,3G
same,Johnsongrass response rating,Johnsongrass; 0.03 kg/ha,10C
same,Johnsongrass response rating,Johnsongrass; 0.12 kg/ha,10C
same,Dallisgrass response rating,Dallisgrass; 0.007 kg/ha,0
same,Dallisgrass response rating,Dallisgrass; 0.015 kg/ha,3G
same,Dallisgrass response rating,Dallisgrass; 0.03 kg/ha,6G
same,Giant Foxtail response rating,Giant Foxtail; 0.007 kg/ha,0
same,Giant Foxtail response rating,Giant Foxtail; 0.015 kg/ha,3G
same,Giant Foxtail response rating,Giant Foxtail; 0.03 kg/ha,3C
same,Cheatgrass response rating,Cheatgrass,0
same,Corn response rating,Corn [4]; 0.007 kg/ha,0
same,Corn response rating,Corn [4]; 0.015 kg/ha,0
same,Corn response rating,Corn [4]; 0.03 kg/ha,10C
same,Corn response rating,Corn [4]; 0.12 kg/ha,10C
same,Sugarbeets response rating,Sugarbeets [5]; 0.015 kg/ha,4G
same,Sugarbeets response rating,Sugarbeets [5]; 0.03 kg/ha,10C
same,Sugarbeets response rating,Sugarbeets [5]; 0.12 kg/ha,10C
same,Cocklebur response rating,Cocklebur; 0.007 kg/ha,0
same,Cocklebur response rating,Cocklebur; 0.015 kg/ha,0
same,Cocklebur response rating,Cocklebur; 0.03 kg/ha,7G
same,Pigweed response rating,Pigweed; 0.007 kg/ha,0
same,Pigweed response rating,Pigweed; 0.12 kg/ha,10C
same,Nutsedge response rating,Nutsedge; 0.007 kg/ha,0
same,Nutsedge response rating,Nutsedge; 0.015 kg/ha,0
same,Cotton response rating,Cotton; 0.007 kg/ha,0
same,Cotton response rating,Cotton; 0.015 kg/ha,0
same,Rice response rating,Rice,3G
same,Sorghum response rating,Sorghum [6]; 0.007 kg/ha,2G
same,Sorghum response rating,Sorghum [6]; 0.015 kg/ha,4G
same,Sorghum response rating,Sorghum [6]; 0.03 kg/ha,10C
same,Morningglory response rating,Morningglory; 0.007 kg/ha,3G
same,Morningglory response rating,Morningglory; 0.015 kg/ha,3G
same,Morningglory response rating,Morningglory; 0.03 kg/ha,8G
same,Cassia response rating,Cassia; 0.007 kg/ha,0
same,Cassia response rating,Cassia; 0.015 kg/ha,0
same,Soybean response rating,Soybean; 0.007 kg/ha,0
same,Soybean response rating,Soybean; 0.015 kg/ha,0
same,Corn response rating,Corn [7]; 0.007 kg/ha,9G
same,Corn response rating,Corn [7]; 0.06 kg/ha,10C
same,Mustard response rating,Mustard,10C
same,Sugarbeets response rating,Sugarbeets [8],10C
same,Sunflower response rating,Sunflower,10C
same,Sesbania response rating,Sesbania; 0.015 kg/ha,9C
same,Sesbania response rating,Sesbania; 0.06 kg/ha,9C
same,Alfalfa response rating,Alfalfa; 0.007 kg/ha,7G
same,Alfalfa response rating,Alfalfa; 0.015 kg/ha,8C
same,Alfalfa response rating,Alfalfa; 0.06 kg/ha,9C
same,Sorghum response rating,Sorghum [9]; 0.015 kg/ha,9C
same,Sorghum response rating,Sorghum [9]; 0.06 kg/ha,10C
same,Jimsonweed response rating,Jimsonweed,0
same,Crabgrass response rating,Crabgrass [10]; 0.003 kg/ha,0
same,Crabgrass response rating,Crabgrass [10]; 0.015 kg/ha,0
same,Barnyardgrass response rating,Barnyardgrass [11]; 0.015 kg/ha,9C
same,Barnyardgrass response rating,Barnyardgrass [11]; 0.06 kg/ha,10C
same,Wheat response rating,Wheat; 0.003 kg/ha,3G
same,Wheat response rating,Wheat; 0.007 kg/ha,6G
same,Wheat response rating,Wheat; 0.015 kg/ha,1C
same,Wheat response rating,Wheat; 0.06 kg/ha,8C
same,Wild Oats response rating,Wild Oats [12]; 0.003 kg/ha,4G
same,Wild Oats response rating,Wild Oats [12]; 0.007 kg/ha,5G
same,Wild Oats response rating,Wild Oats [12]; 0.06 kg/ha,10C
